Experimental data: publication PMC6381024, “Probing Anti-inflammatory Properties Independent of NF-κB Through Conformational Constraint of Peptide-Based Interleukin-1 Receptor Biased Ligands” (Frontiers in Chemistry, 2019)

Legend:
retinal microglia = assay: Retinal microglial activation and density (Iba-1 staining) in the OIR model; type: in vivo; details: OIR rat pups, 2 mg/kg/day i.p.; for Effect on microglial activation / morphology: Iba-1 immunohistochemistry
From the text: On P5, litters were transferred to a controlled hyperoxic environment (Biospherix OxyCycler A84XOV) and maintained at 80 ± 1% O2, which is used to induce vaso-obliteration of the retinal vasculature. At this timepoint, the vasculature is immature and particularly susceptible to […] insults resulting in vaso-obliteration, a defining characteristic of the early stage of retinopathies in premature infants (Garner and Ashton, [1971]). Control litters were not exposed to hyperoxia and were kept in standard conditions with room air (21% O2). To control for the effects of hyperoxia on the lactation of the dams, dams of hyperoxic litters were switched with dams of control litters on P8.
In litters exposed to hyperoxia, pups were randomized to receive phosphate-buffered saline (PBS) vehicle, 2 mg/kg/day of peptides 1, 5, or 6 or 3 mg/kg/day of Kineret from P5 to P10. These doses were determined from our previous study (Rivera et al., [2013]) and administered in twice-daily intra-peritoneal injections titrated to 20 μL per injection with 28-gauge insulin syringes. A total of 6–8 pups were used for each treatment group.
Retinas were treated at room temperature for 1 h with a blocking solution consisting of 1% bovine serum albumin (BSA), 1% normal goat serum, 0.1% Triton X-100 and 0.05% Tween-20 in PBS. The retinas were then double-labeled overnight at 4°C with gentle shaking in an antibody solution consisting of 1 mM CaCl2, 1% Triton X-100, 1% TRITC-conjugated lectin cell endothelial marker from Bandeiraea simplicifolia (Sigma-Aldrich, St Louis, MO) and a 1:500 dilution of rabbit anti-ionized calcium-binding adapter molecule (Iba)-1 antibody (Wako Chemicals USA) in PBS. The retinas were then washed thrice with PBS and incubated with a secondary antibody solution consisting of 1% BSA, 0.1% Triton X-100, 0.05% Tween-20 and 1:500 Alexa-594-conjugated donkey anti-rabbit IgG (ThermoFisher Scientific, Rockford, IL) in PBS for 2 h at room temperature. Retinas were washed thrice with PBS and then flat-mounted onto glass slides with coverslips and Fluoro-Gel mounting medium (Electron Microscopy Sciences, Hatfield, PA).
For assessment of vaso-obliteration, retinas were imaged using an epifluorescence microscope at 10X magnification (Zeiss AxioImager Z2) and version 4.8 of the AxioVision software. Images were captured and stitched together using the software's MosaiX feature. Iba-1 staining was assessed with the same microscope at 20X magnification, and a total of 4 fields per retina were imaged halfway between the optic nerve and the edge of the retina.
Representative images of Iba-1 staining were taken using a laser scanning confocal microscope (Olympus IX81 with Fluoview FV1000 Scanhead) with the Fluoview Software at 30X magnification.
The FIJI software was used to the quantify the area of vaso-obliteration in each retina, expressed as a percentage of the area of the whole retina. The number of Iba-1-positive cells was counted using the cell counter plug-in in FIJI, and the average of cell counts in 4 fields per retina was calculated.
Figure 11 The effects of peptides 1, 5, and 6 on retinal microglial activation and density. Retinas were obtained for immunohistochemistry from rat pups treated with the OIR protocol, and incubated with rabbit anti-iba-1 antibody, followed by donkey anti-rabbit antibody conjugated to Alexa 594. (A) Representative confocal images of retinal microglia at 30X magnification: scale bar 100 μm. (B) Epifluorescence microscopy images at 20 × magnification of retinal microglial density quantified using ImageJ: 4 images per retina were taken at a distance halfway between the optic nerve and the peripheral edge of the retina; n = 5–7 for peptide 1, 5, and 6, and Kineret; n = 8–10 for normoxia and vehicle; ^*p < 0.05, ^****p < 0.0001 relative to the vehicle group. Treatment groups that are not labeled with asterisks are statistically non-significant compared to the vehicle group.

[1] = test system: thymocyte TF-1 proliferation; details: ref Jamieson et al., 2009; Boutard et al., 2011; cited from earlier work
From the text: Conformational restriction of natural peptides has been used to identify active geometry and to enhance therapeutic potential by mitigating issues such as low oral availability and poor metabolic stability (Carney et al., [2014]; Rubin and Qvit, [2016]; Lubell, [2017]). Since pioneering studies by Freidinger and Veber, the application of Agl residues has proven effective for constraining the backbone sequence to favor β-turn geometry in various peptides (Freidinger et al., [1980], [1982]; Yu et al., [1988]; Zhang et al., [1996]; Aube, [1999]; Perdih and Kikelj, [2006]; Valle et al., [2009]). I ...

Substance | Effect on microglial activation / morphology (retinal microglia) | Inhibition of IL-1β-induced thymocyte TF-1 proliferation, compared to peptide 1 [1] | Reduction of microglial density (retinal microglia; Iba-1-positive cell counts)
H-D-Arg-D-Tyr-(3R,4S)-Hgl-D-Val-D-Glu-D-Leu-D-Ala-NH2 [[(3R,4S)-Hgl^3]-1] | prevented partially the activation of microglia |  | 
H-D-Arg-D-Tyr-(3S,4R)-Hgl-D-Val-D-Glu-D-Leu-D-Ala-NH2 [[(3S,4R)-Hgl^3]-1] | prevented partially the activation of microglia |  | 
H-D-Arg-D-Tyr-(R)-Agl-D-Val-D-Glu-D-Leu-D-Ala-NH2 [[(3R)-Agl^3]-1] | no appreciable effect on microglial morphology | significantly diminished activity | 
H-D-Arg-D-Tyr-(S)-Agl-D-Val-D-Glu-D-Leu-D-Ala-NH2 [[(3S)-Agl^3]-1] | no appreciable effect on microglial morphology |  | < 20%
H-D-Arg-D-Tyr-D-Thr-D-Val-D-Glu-D-Leu-D-Ala-NH2 [Peptide 1] | inactive and ramified |  | 
